species: Homo sapiens; test: Potency based on concentration of sweetener which matches the sweetness recognition threshold of sucrose (~2%); type: functional, organism-based

Q: Which Log potency does the source give for `C[C@@H](N/C(=N\CC(=O)O)Nc1ccc(C#N)cc1)c1ccccc1` here?
A: 4.45

Q: Which Log potency does the source give for `COC(=O)C(Cc1ccccc1)NC(=O)C(CC(=O)O)NC(=O)Nc1ccc(C#N)cc1` (configuration not stated) here?
A: 4

Q: How did the Log potency turn out when `CC12CCC(C1)C(C)(C)C2OC(=O)C(NC(=O)C(N)CC(=O)O)c1ccco1` (configuration not stated) was run?
A: 4.22

Q: For `O=C(O)C/N=C(\NCc1ccccc1)Nc1cc(Cl)cc(Cl)c1`, which Log potency is on record?
A: 4.9

Q: `N#Cc1ccc(N/C(=N/CC(=O)O)NC2CCCCCCC2)cc1` was tested. Which Log potency did it give?
A: 5.23

Q: For `CC(NC(=O)C(N)CC(=O)O)C(=O)NC1C(C)(C)CCC1(C)C` (configuration not stated), which Log potency is on record?
A: 2.9

Q: With `COC(=O)C(Cc1ccccc1)NC(=O)C(CC(=O)O)/N=C(\S)Nc1ccc(C#N)cc1` (configuration not stated) as the compound, how does the Log potency read?
A: 4.7

Q: `CC(NC(=O)C(N)CC(=O)O)C(=O)NC1C(C)(C)SC1(C)C` (configuration not stated) was tested. Which Log potency did it give?
A: 3.3

Q: `CC(NC(=O)C(N)CC(=O)O)C(=O)NC1CCCC1` (configuration not stated) was tested. Which Log potency did it give?
A: 1.7

Q: With `CC12CCC(C1)C(C)(C)C2OC(=O)C(NC(=O)C(N)CC(=O)O)c1cccs1` (configuration not stated) as the compound, how does the Log potency read?
A: 3.38

Q: For `COC(=O)[C@H](Cc1ccccc1)NC(=O)[C@@H](N)CC(=O)O`, which Log potency is on record?
A: 2.26

Q: `N#Cc1ccc(N/C(S)=N/CCC(=O)O)cc1` was tested. Which Log potency did it give?
A: 3.32

Q: How did the Log potency turn out when `O=C(O)CCNC(=O)Nc1ccc([N+](=O)[O-])cc1` was run?
A: 2.85

Q: For `N#Cc1ccc(N/C(=N/CC(=O)O)NCc2ccccc2)cc1`, which Log potency is on record?
A: 4.48

Q: With `C[C@@H](N/C(=N\CC(=O)O)Nc1cc(Cl)cc(Cl)c1)c1ccccc1` as the compound, how does the Log potency read?
A: 5.08

Q: For `N#CN/C(=N\CCC(=O)O)Nc1ccc(C#N)cc1`, which Log potency is on record?
A: 2.95

Q: `N#Cc1ccc(NC(=O)NC(CC(=O)O)c2ccncc2)cc1` (configuration not stated) was tested. Which Log potency did it give?
A: 3.3

Q: For `N#Cc1ccc(NC(=O)NCCC(=O)O)cc1`, which Log potency is on record?
A: 2.65

Q: For `N#Cc1ccc(N/C(=N/CC(=O)O)NS(=O)(=O)c2ccccc2)cc1`, which Log potency is on record?
A: 4.48

Q: `N#CN/C(=N\CC(=O)O)Nc1ccc(C#N)cc1` was tested. Which Log potency did it give?
A: 3.85

Q: With `N#Cc1ccc(NC(=O)NC(CC(=O)O)c2ccccc2)cc1` (configuration not stated) as the compound, how does the Log potency read?
A: 4

Q: For `N#Cc1ccc(NC(=O)NC(CC(=O)O)c2cccnc2)cc1` (configuration not stated), which Log potency is on record?
A: 4.3
